Source: patent US20220348592A1, “FUSED HETEROCYCLIC DERIVATIVES” (Janssen Sciences Ireland Unlimited Company, priority 2019, published 2022)

Key:
HBV = test: Anti-HBV activity: intracellular HBV DNA by real-time PCR in HepG2.117 cell line; type: cell-based, Hepatitis B virus; details: Hepatitis B virus, 72 h; HepG2.117 cells, 3 days of treatment, intracellular HBV DNA by real-time PCR, mean value; read-out: HBV-AVE-HepG2.117 EC50 (μM, mean value)
Summary of the method: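 HepG2.117 cells, a Tet-off inducible HBV-producing line, induced to replicate HBV and then treated with serially diluted compound. After 3 days, intracellular HBV DNA quantified by real-time PCR with HBV-specific primers and probe.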

[1] = Cytotoxicity in HepG2.117 cells, ATPlite Luminescence Assay; type: cell-based, human; details: human, incubated for 3 days, mean value, read-out: TOX-HepG2.117 CC50 (μM, mean value)
Protocol: Cytotoxicity of the compounds was tested using HepG2 or HepG2.117 cells, incubated for 3 days in the presence of compounds. The viability of the cells was assessed using the PERKIN ELMER ATPlite Luminescence Assay System.”

Compound	EC50 (HBV)	CC50 at 3 days [1]
C[C@@H]1Cc2nn3c(c2CN1C(=O)c1ccc(Cl)c(Cl)c1)C(=O)N(Cc1cnn(C)c1)CC3 [Example C147]	0.054 µM	> 50 µM
Cc1noc(CN2CCn3nc4c(c3C2=O)CN(C(=O)c2ccc(Cl)c(Cl)c2)[C@H](C)C4)n1 [Example C148]	0.385 µM	> 50 µM
Cc1nc(C)c(CN2CCn3nc4c(c3C2=O)CN(C(=O)c2ccc(Cl)c(Cl)c2)[C@H](C)C4)o1 [Example C149]	0.059 µM	> 50 µM
Cc1ncsc1CN1CCn2nc3c(c2C1=O)CN(C(=O)c1ccc(Cl)c(Cl)c1)[C@H](C)C3 [Example C150]	0.075 µM	> 50 µM
Cc1nc(CN2CCn3nc4c(c3C2=O)CN(C(=O)c2ccc(Cl)c(Cl)c2)[C@H](C)C4)no1 [Example C151]	0.42 µM	> 50 µM
Cc1cccnc1CN1CCn2nc3c(c2C1=O)CN(C(=O)c1ccc(Cl)c(Cl)c1)[C@H](C)C3 [Example C152]	0.145 µM	> 50 µM
C[C@@H]1Cc2nn3c(c2CN1C(=O)c1ccc(Cl)c(Cl)c1)C(=O)N(Cc1cncc(F)c1)CC3 [Example C153]	0.082 µM	> 50 µM
Cc1cc(F)ccc1CN1CCn2nc3c(c2C1=O)CN(C(=O)c1ccc(Cl)c(Cl)c1)[C@H](C)C3 [Example C154]	0.071 µM	9.53 µM
C[C@@H]1Cc2nn3c(c2CN1C(=O)c1ccc(Cl)c(Cl)c1)C(=O)N(Cc1cn(C)nc1C(F)F)CC3 [Example C155]	0.083 µM	> 50 µM
Cc1nc(CN2CCn3nc4c(c3C2=O)CN(C(=O)c2ccc(Cl)c(Cl)c2)[C@H](C)C4)co1 [Example C156]	0.174 µM	> 50 µM
Cc1cc(CN2CCn3nc4c(c3C2=O)CN(C(=O)c2ccc(Cl)c(Cl)c2)[C@H](C)C4)nn1C [Example C157]	0.02 µM	> 50 µM
Cc1nnc(CN2CCn3nc4c(c3C2=O)CN(C(=O)c2ccc(Cl)c(Cl)c2)[C@H](C)C4)n1C1CC1 [Example C158]	2.38 µM	> 50 µM
C[C@@H]1Cc2nn3c(c2CN1C(=O)c1ccc(Cl)c(Cl)c1)C(=O)N(Cc1ncccc1C(F)(F)F)CC3 [Example C159]	0.979 µM	36 µM
Cc1ncc(CN2CCn3nc4c(c3C2=O)CN(C(=O)c2ccc(Cl)c(Cl)c2)[C@H](C)C4)s1 [Example C160]	0.029 µM	> 50 µM
C[C@@H]1Cc2nn3c(c2CN1C(=O)c1ccc(Cl)c(Cl)c1)C(=O)N(Cc1cc(Cl)cc(C#N)c1)CC3 [Example C161]	0.051 µM	> 50 µM
Cc1nc(CN2CCn3nc4c(c3C2=O)CN(C(=O)c2ccc(Cl)c(Cl)c2)[C@H](C)C4)cs1 [Example C162]	0.082 µM	> 50 µM
COc1ccc(CN2CCn3nc4c(c3C2=O)CN(C(=O)c2ccc(Cl)c(Cl)c2)[C@H](C)C4)cc1C#N [Example C163]	0.098 µM	> 50 µM
CC(C)Oc1ccc(CN2CCn3nc4c(c3C2=O)CN(C(=O)c2ccc(Cl)c(Cl)c2)[C@H](C)C4)cc1 [Example C164]	0.039 µM	4.29 µM
C[C@@H]1Cc2nn3c(c2CN1C(=O)c1ccc(Cl)c(Cl)c1)C(=O)N(Cc1nnn(C)c1C(F)(F)F)CC3 [Example C165]	0.676 µM	> 50 µM
COc1cccc(F)c1CN1CCn2nc3c(c2C1=O)CN(C(=O)c1ccc(Cl)c(Cl)c1)[C@H](C)C3 [Example C166]	0.034 µM	29.1 µM
C[C@@H]1Cc2nn3c(c2CN1C(=O)c1ccc(Cl)c(Cl)c1)C(=O)N(Cc1ccncc1C(F)F)CC3 [Example C167]	0.277 µM	> 50 µM
COc1ccc(CN2CCn3nc4c(c3C2=O)CN(C(=O)c2ccc(Cl)c(Cl)c2)[C@H](C)C4)c(F)c1 [Example C168]	0.046 µM	6.11 µM
C[C@@H]1Cc2nn3c(c2CN1C(=O)c1ccc(Cl)c(Cl)c1)C(=O)N(Cc1ncoc1C(F)(F)F)CC3 [Example C169]	0.831 µM	> 50 µM
C[C@@H]1Cc2nn3c(c2CN1C(=O)c1ccc(Cl)c(Cl)c1)C(=O)N(Cc1ccc(C#N)cc1C(F)(F)F)CC3 [Example C170]	0.432 µM	> 50 µM
C[C@@H]1Cc2nn3c(c2CN1C(=O)c1ccc(Cl)c(Cl)c1)C(=O)N(Cc1ccc(C(F)(F)F)nc1)CC3 [Example C171]	0.082 µM	15.3 µM
C[C@@H]1Cc2nn3c(c2CN1C(=O)c1ccc(Cl)c(Cl)c1)C(=O)N(Cc1coc(C(F)(F)F)n1)CC3 [Example C172]	0.19 µM	> 50 µM
Cc1cn(C)c(CN2CCn3nc4c(c3C2=O)CN(C(=O)c2ccc(Cl)c(Cl)c2)[C@H](C)C4)n1 [Example C173]	0.41 µM	> 50 µM

Compound	EC50 (HBV)	CC50 at 3 days [1]
C[C@@H]1Cc2nn3c(c2CN1C(=O)c1ccc(Cl)c(Cl)c1)C(=O)N(Cc1ccccc1OC(F)(F)F)CC3 [Example C174]	0.18 µM	15.3 µM
C[C@@H]1Cc2nn3c(c2CN1C(=O)c1ccc(Cl)c(Cl)c1)C(=O)N(Cc1ccc(C#N)cc1F)CC3 [Example C175]	0.038 µM	35.5 µM
C[C@@H]1Cc2nn3c(c2CN1C(=O)c1ccc(Cl)c(Cl)c1)C(=O)N(Cc1cn2ccc(C(F)(F)F)cc2n1)CC3 [Example C176]	0.274 µM	15 µM
Cc1cc(F)ncc1CN1CCn2nc3c(c2C1=O)CN(C(=O)c1ccc(Cl)c(Cl)c1)[C@H](C)C3 [Example C177]	0.136 µM	> 50 µM
C[C@@H]1Cc2nn3c(c2CN1C(=O)c1ccc(Cl)c(Cl)c1)C(=O)N(Cc1cc(C#N)c(F)cc1F)CC3 [Example C178]	0.207 µM	> 50 µM
CC(C)c1nnc(CN2CCn3nc4c(c3C2=O)CN(C(=O)c2ccc(Cl)c(Cl)c2)[C@H](C)C4)o1 [Example C179]	0.219 µM	> 50 µM
C[C@@H]1Cc2nn3c(c2CN1C(=O)c1ccc(Cl)c(Cl)c1)C(=O)N(Cc1cc(C#N)ccc1F)CC3 [Example C180]	0.123 µM	> 50 µM
C[C@@H]1Cc2nn3c(c2CN1C(=O)c1ccc(Cl)c(Cl)c1)C(=O)N(Cc1cc(F)ccc1C(F)(F)F)CC3 [Example C181]	0.152 µM	> 50 µM
C[C@@H]1Cc2nn3c(c2CN1C(=O)c1ccc(Cl)c(Cl)c1)C(=O)N(Cc1cc(C(F)F)on1)CC3 [Example C182]	0.075 µM	> 50 µM
CC(C)c1noc(C(C)N2CCn3nc4c(c3C2=O)CN(C(=O)c2ccc(Cl)c(Cl)c2)[C@H](C)C4)n1 (stereo partly drawn) [Example C183]	0.108 µM	> 50 µM
CC(c1nnnn1C1CC1)N1CCn2nc3c(c2C1=O)CN(C(=O)c1ccc(Cl)c(Cl)c1)[C@H](C)C3 (stereo partly drawn) [Example C184]	> 2.5 µM	> 50 µM
CC(c1cccnc1)N1CCn2nc3c(c2C1=O)CN(C(=O)c1ccc(Cl)c(Cl)c1)[C@H](C)C3 (stereo partly drawn) [Example C185]	0.114 µM	> 50 µM
CC(c1ccc(F)c(F)c1)N1CCn2nc3c(c2C1=O)CN(C(=O)c1ccc(Cl)c(Cl)c1)[C@H](C)C3 (stereo partly drawn) [Example C186]	0.049 µM	21.6 µM
CC(C)Cc1nnc(C(C)N2CCn3nc4c(c3C2=O)CN(C(=O)c2ccc(Cl)c(Cl)c2)[C@H](C)C4)o1 (stereo partly drawn) [Example C187]	0.155 µM	> 50 µM
CC(c1cccc(F)c1)N1CCn2nc3c(c2C1=O)CN(C(=O)c1ccc(Cl)c(Cl)c1)[C@H](C)C3 (stereo partly drawn) [Example C188]	0.04 µM	49.6 µM
CC(c1cc(F)ccc1F)N1CCn2nc3c(c2C1=O)CN(C(=O)c1ccc(Cl)c(Cl)c1)[C@H](C)C3 (stereo partly drawn) [Example C189]	0.043 µM	41.8 µM
CC(c1nc(C2CC2)no1)N1CCn2nc3c(c2C1=O)CN(C(=O)c1ccc(Cl)c(Cl)c1)[C@H](C)C3 (stereo partly drawn) [Example C190]	0.115 µM	33.1 µM
CC(c1cccc2cccnc12)N1CCn2nc3c(c2C1=O)CN(C(=O)c1ccc(Cl)c(Cl)c1)[C@H](C)C3 (stereo partly drawn) [Example C191]	0.097 µM	33 µM
CC(c1ccc(F)cc1F)N1CCn2nc3c(c2C1=O)CN(C(=O)c1ccc(Cl)c(Cl)c1)[C@H](C)C3 (stereo partly drawn) [Example C192]	0.076 µM	39.7 µM
Cc1nccnc1C(C)N1CCn2nc3c(c2C1=O)CN(C(=O)c1ccc(Cl)c(Cl)c1)[C@H](C)C3 (stereo partly drawn) [Example C193]	0.197 µM	> 50 µM
CC(c1cccc(OC(F)(F)F)c1)N1CCn2nc3c(c2C1=O)CN(C(=O)c1ccc(Cl)c(Cl)c1)[C@H](C)C3 (stereo partly drawn) [Example C194]	0.075 µM	26.4 µM
C[C@@H]1Cc2nn3c(c2CN1C(=O)c1ccc(Cl)c(Cl)c1)C(=O)N(Cc1ccc(C#N)cn1)CC3 [Example C195]	0.566 µM	> 50 µM
C[C@@H]1Cc2nn3c(c2CN1C(=O)c1ccc(Cl)c(Cl)c1)C(=O)N(Cc1cc(F)cc(F)c1)CC3 [Example C196]	0.048 µM	38 µM
C[C@@H]1Cc2nn3c(c2CN1C(=O)c1ccc(Cl)c(Cl)c1)C(=O)N(Cc1c(F)cncc1F)CC3 [Example C197]	0.24 µM	> 50 µM
COc1ncc(CN2CCn3nc4c(c3C2=O)CN(C(=O)c2ccc(Cl)c(Cl)c2)[C@H](C)C4)cn1 [Example C198]	0.053 µM	> 50 µM
C[C@@H]1Cc2nn3c(c2CN1C(=O)c1ccc(Cl)c(Cl)c1)C(=O)N(Cc1nc(Cl)ccc1F)CC3 [Example C199]	0.33 µM	> 50 µM
C[C@@H]1Cc2nn3c(c2CN1C(=O)c1ccc(Cl)c(Cl)c1)C(=O)N(Cc1nnn(C)n1)CC3 [Example C200]	0.25 µM	> 50 µM
